Experimental findings from patent publication US20190010139A1 (priority 2015, published 2019) are described below.

The test system of the assay is NL-RLuc virus. Kind of assay: Inhibition of HIV replication (NL-RLuc luciferase reporter virus in MT-2 cells). Type of assay: cell-based. The note with it: Human immunodeficiency virus 1, MT2, 120 h. Put shortly:
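MT-2 cells were infected with NL4-3-derived virus carrying Renilla luciferase in place of part of nef, with serial compound dilutions, in RPMI 1640 with 10% FBS. After 5 days, virus growth was read as luciferase signal. EC50 came from the median effect equation over at least 2 experiments.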

Structures are written as SMILES. Read-outs that look alike come from different tables or passages of the source. Where only a bound is given, the exact number is not on record here.

As for `Cc1nc(C)c([C@H](OC(C)(C)C)C(=O)O)c(N2CCC3(CCCO3)CC2)c1-c1ccc(OCCc2ccc(F)cc2)cc1` [Example 66, (S)-2-(tert-Butoxy)-2-(5-(4-(4-fluorophenethoxy)phenyl)-2,6-dimethyl-4-(1-oxa-8-azaspiro[4.5]decan-8-yl)pyridin-3-yl)acetic acid], the EC50 (read-out: Activity) was under 0.1 µM. Turning to `Cc1nc(C)c([C@H](OC(C)(C)C)C(=O)O)c(N2CCC3(CCOC3)CC2)c1-c1ccc(OCCc2ccc(F)cc2)cc1` [Example 67, (S)-2-(tert-Butoxy)-2-(5-(4-(4-fluorophenethoxy)phenyl)-2,6-dimethyl-4-(2-oxa-8-azaspiro[4.5]decan-8-yl)pyridin-3-yl)acetic acid], the EC50 (read-out: Activity) was under 0.1 µM. Turning to `Cc1nc(C)c([C@H](OC(C)(C)C)C(=O)O)c(N2CCC3(CCNC3)CC2)c1-c1ccc(OCCc2ccc(F)cc2)cc1` [Example 68, (S)-2-(tert-Butoxy)-2-(5-(4-(4-fluorophenethoxy)phenyl)-2,6-dimethyl-4-(2,8-diazaspiro[4.5]decan-8-yl)pyridin-3-yl)acetic acid], the EC50 is, setting by setting: (read-out: Activity) 0.1 to 1 µM; (read-out: EC50 μM) 0.731 µM. For `Cc1nc(C)c([C@H](OC(C)(C)C)C(=O)O)c(N2CCC3(CCNC3)CC2)c1-c1ccc(C(=O)NCc2ccccc2)cc1` [Example 69, (S)-2-(5-(4-(Benzylcarbamoyl)phenyl)-2,6-dimethyl-4-(2,8-diazaspiro[4.5]decan-8-yl)pyridin-3-yl)-2-(tert-butoxy)acetic acid] the same measures were over 1 µM and 9.66 µM. Regarding `Cc1nc(C)c([C@H](OC(C)(C)C)C(=O)O)c(N2CCC3(CC2)CC3(F)F)c1-c1ccc(OCCc2ccc(F)cc2)cc1` [Example 70, (S)-2-(tert-Butoxy)-2-(4-(1,1-difluoro-6-azaspiro[2.5]octan-6-yl)-5-(4-(4-fluorophenethoxy)phenyl)-2,6-dimethylpyridin-3-yl)acetic acid], for the setting “read-out: Activity”, the EC50 was under 0.1 µM.

As to `Cc1nc(C)c([C@H](OC(C)(C)C)C(=O)O)c(N2CCC3(CC2)CC3(F)F)c1-c1ccc(C(=O)NCc2ccccc2)cc1` [Example 71, (S)-2-(5-(4-(Benzylcarbamoyl)phenyl)-4-(1,1-difluoro-6-azaspiro[2.5]octan-6-yl)-2,6-dimethylpyridin-3-yl)-2-(tert-butoxy)acetic acid], the EC50 runs as follows: (read-out: Activity) under 0.1 µM; (read-out: EC50 μM) 0.018 µM.
